Assay: excess molar enthalpy (molar enthalpy of mixing); xn = mol fraction of the nth substance listed
Settings: 101 kPa, Liquid, Flow calorimetry

CC(C)CC(C)(C)C [2,2,4-trimethylpentane] + CCCCCO
x2 = 0
Settings | excess molar enthalpy [kcal/mol]
298.15 K | 0
313.15 K | 0

CCCCCCC [heptane] + CCCCCO
x2 = 0
Settings | excess molar enthalpy [kcal/mol]
298.15 K | 0
313.15 K | 0

CCCCCO [pentan-1-ol] + CC(C)CC(C)(C)C
excess molar enthalpy [kcal/mol]
Settings | 298.15 K | 313.15 K
x1 = 0.0508 | 0.0899 | –
x1 = 0.051 | – | 0.124
x1 = 0.0999 | 0.112 | –
x1 = 0.1003 | – | 0.155
x1 = 0.1501 | 0.126 | –
x1 = 0.1506 | – | 0.174
x1 = 0.2008 | 0.137 | –
x1 = 0.2019 | – | 0.187
x1 = 0.25 | 0.143 | –
x1 = 0.2512 | – | 0.194
x1 = 0.2999 | 0.148 | –
x1 = 0.3012 | – | 0.199
x1 = 0.3516 | 0.148 | –
x1 = 0.3517 | – | 0.2
x1 = 0.4025 | 0.147 | –
x1 = 0.4026 | – | 0.199
x1 = 0.4514 | 0.145 | 0.194
x1 = 0.5025 | 0.139 | –
x1 = 0.5026 | – | 0.187
x1 = 0.5516 | 0.131 | –
x1 = 0.5517 | – | 0.177
x1 = 0.6025 | 0.121 | –
x1 = 0.6026 | – | 0.164
x1 = 0.6513 | 0.109 | 0.148
x1 = 0.7015 | 0.0951 | –
x1 = 0.7016 | – | 0.13
x1 = 0.7512 | 0.0802 | –
x1 = 0.7513 | – | 0.11
x1 = 0.8003 | 0.064 | 0.088
x1 = 0.8503 | 0.048 | 0.0654
x1 = 0.9008 | 0.0311 | 0.0423
x1 = 0.9503 | 0.0147 | 0.0205
x1 = 1 | 0 | 0

CCCCCO [pentan-1-ol] + CCCCCCC
excess molar enthalpy [kcal/mol]
Settings | 298.15 K | 313.15 K
x1 = 0.0484 | – | 0.113
x1 = 0.0563 | 0.088 | –
x1 = 0.0981 | – | 0.148
x1 = 0.1109 | 0.111 | –
x1 = 0.149 | – | 0.165
x1 = 0.1664 | 0.125 | –
x1 = 0.1985 | – | 0.177
x1 = 0.2203 | 0.134 | –
x1 = 0.2491 | – | 0.187
x1 = 0.2749 | 0.141 | –
x1 = 0.2983 | – | 0.19
x1 = 0.3279 | 0.145 | –
x1 = 0.3483 | – | 0.192
x1 = 0.3793 | 0.146 | –
x1 = 0.3991 | – | 0.186
x1 = 0.4314 | 0.144 | –
x1 = 0.4484 | – | 0.186
x1 = 0.4818 | 0.139 | –
x1 = 0.4984 | – | 0.177
x1 = 0.5328 | 0.131 | –
x1 = 0.5488 | – | 0.166
x1 = 0.5822 | 0.122 | –
x1 = 0.5977 | – | 0.159
x1 = 0.6281 | 0.11 | –
x1 = 0.6489 | – | 0.144
x1 = 0.6765 | 0.0984 | –
x1 = 0.7003 | – | 0.124
x1 = 0.7235 | 0.0849 | –
x1 = 0.7483 | – | 0.106
x1 = 0.7725 | 0.071 | –
x1 = 0.7981 | – | 0.0845
x1 = 0.8182 | 0.0576 | –
x1 = 0.8497 | – | 0.0637
x1 = 0.8643 | 0.0427 | –
x1 = 0.8995 | – | 0.042
x1 = 0.9104 | 0.0282 | –
x1 = 0.9491 | – | 0.0196
x1 = 0.9552 | 0.0138 | –
x1 = 1 | 0 | 0

Reference: the NIST ThermoML archive (doi:10.1016/j.fluid.2012.11.005)
